51 compounds from patent publication US11066409B2, “Bicyclic nitrogen-containing heterocyclic derivatives and pharmaceutical composition comprising the same” (Shionogi & Co., Ltd., priority 2016, dated 2021) can be followed below.

The IC50 is the point on the concentration scale where inhibition reaches its midpoint. A low value points to higher potency.

Sequence of human P2X7 receptor (Q99572 whole entry R270H): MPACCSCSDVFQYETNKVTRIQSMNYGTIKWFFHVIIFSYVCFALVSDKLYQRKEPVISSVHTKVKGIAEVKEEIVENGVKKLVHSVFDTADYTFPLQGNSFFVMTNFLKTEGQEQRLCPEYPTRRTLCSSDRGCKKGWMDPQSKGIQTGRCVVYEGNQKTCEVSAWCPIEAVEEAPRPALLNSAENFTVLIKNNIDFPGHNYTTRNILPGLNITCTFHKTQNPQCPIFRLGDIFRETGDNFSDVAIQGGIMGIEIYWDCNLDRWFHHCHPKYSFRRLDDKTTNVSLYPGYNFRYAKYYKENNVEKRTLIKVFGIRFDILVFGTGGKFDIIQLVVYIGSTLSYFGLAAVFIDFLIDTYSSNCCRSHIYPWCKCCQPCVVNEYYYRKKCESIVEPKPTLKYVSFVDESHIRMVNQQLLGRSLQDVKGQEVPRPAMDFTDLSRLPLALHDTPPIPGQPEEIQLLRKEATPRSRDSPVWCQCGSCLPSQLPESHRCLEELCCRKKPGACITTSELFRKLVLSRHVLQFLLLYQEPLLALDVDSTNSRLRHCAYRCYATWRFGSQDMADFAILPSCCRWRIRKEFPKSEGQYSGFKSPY

The target in one experiment is human P2X7 receptor (Homo sapiens (Human), UniProt Q99572, R270H). As to the kind of experiment: Evaluation of a human P2X7 receptor inhibitory activity (Yo-Pro uptake, BzATP stimulation, FLIPR TETRA). The class given is cell-based. The following applies: 1321N1 cells stably expressing human P2X7 receptor, Yo-Pro fluorescence. The method, then:
Evaluation of a human P2X7 receptor inhibitory activity Stably expressing cell line (1321N1 cell transfected with the human P2X7 receptor gene (GenBank accession number NM_002562.5 including T606C and G952A SNP)) was used. The cells were seeded in a 384-well microtiter plate at a concentration of 8000 cells/well and cultured in the medium (10% fetal bovine serum, 25 mM HEPES, 1% penicillin and streptomycin in DMEM) for one day at 37° C. under 5% carbon dioxide atmosphere. After replacing with 20 μL of the HBSS buffer (20 mM HEPES, 55.6 mM D-glucose, 1× HBSS(−), pH7.4-7.5), 15 μL of 17.3 μM Yo-Pro solution in the HBSS buffer was added. The plate was placed in high-throughput cellular screening system FLIPR TETRA (Molecullar Devices, LLC.) and 15 μL of 130 μM BzATP solution in the HBSS buffer was added. Measurement of fluorescence intensity by FLIPR TETRA was started. After eight minutes, 15 μL of DMSO solutions containing different concentrations of the compound of the present invention as prepared by dilution with the HBSS buffer were dispensed to each well through the built-in automatic dispenser, and the measurement of fluorescence intensity was continued for 20 minutes. The maximum fluorescence intensity without the compound of the present invention is calculated as 0% inhibition and the maximum fluorescence intensity when the reference compound was added is calculated as 100% inhibition. Changing values of fluorescence intensity by the compound of the present invention were calculated by difference between maximum and minimum fluorescence intensity for 20 minutes. Inhibition ratios (%) were calculated from the following equation:
[formula] IC50 was calculated using logistic approximation.
As for IC50 value, value to below 10 nmol/L is represented as “A”, value from 10 nmol/L to below 100 nmol/L is represented as “B”, value from 100 nmol/L to below 500 nmol/L is represented as “C”, and value from 500 nmol/L to below 1 μmol/L is represented as “D”.
Compound `Cc1c(Cl)cccc1Nc1nc(=O)cc2n1C(c1ccccc1)COC2` (single isomer, unassigned) [Compound I-0003] yielded an IC50 of 1.8 nM. This counts as single-digit nanomolar. On the same count and under the same terms, as for `COc1ccc(NC2=NC(=O)N(C)C3=NCC(c4ccc(F)cc4)N23)c(C)c1F` (stereo not drawn) [Compound I-0151], the figure is 14 nM; as for `O=c1cc2n(c(Nc3cccc4ncccc34)n1)C(c1ccccc1)CO2` (stereo not drawn) [Compound I-0001], 16 nM.

Still in this experiment, the particulars now being: 1321N1 cells stably expressing human P2X7 receptor, Yo-Pro fluorescence, class symbols.
The compound `COc1ccc(C)c(Nc2nc(=O)c(F)c3n2C(c2cc(F)cc(F)c2)CC3)c1` (stereo not drawn) [Compound I-0098] displayed an IC50 of under 10 nM. `COc1ccc(/N=c2\[nH]c(=O)c(F)c3n2C(c2cc(F)cc(F)c2)CC3)c(C)n1` (stereo not drawn) [Compound I-0095] returned an IC50 of 10 to 100 nM. Same read-out and setting: as for `COc1nc(C)c(Nc2nc(=O)cc3n2C(c2cc(F)c(F)c(F)c2)CC3)cc1F` (stereo not drawn) [Compound I-0090], the figure is 10 to 100 nM; as for `COc1cc(NC2=NC(=O)N(C)C3=NCC(c4cc(F)cc(F)c4)N23)c(C)nc1OC` (stereo not drawn) [Compound I-0133], 10 to 100 nM; as for `CCOc1ccc(/N=c2\[nH]c(=O)c(F)c3n2C(c2ccc(F)cc2F)CC3)c(CC)n1` (stereo not drawn) [Compound I-0076], 10 to 100 nM. `Cc1ccc(O[C@H]2C[C@@H](CO)C2)cc1NC1=NC(=O)N(C)C2=NCC(c3cc(F)c(F)c(F)c3)N12` (stereo partly drawn) [Compound I-0185] had an IC50 of 10 to 100 nM. Still for that read-out and setting: in the case of `COc1ccc(NC2=NC(=O)N(C)C3=NCC(c4ccc(F)cc4)N23)c(C)c1` (stereo not drawn) [Compound I-0130] it was 10 to 100 nM; in that of `COc1cc(NC2=NC(=O)N(C)C3=NCC(c4cc(F)cc(F)c4)N23)c(C)cc1F` (stereo not drawn) [Compound I-0148], 10 to 100 nM. Still for that read-out and setting: as for `CN1C(=O)N=C(Nc2cc(C#N)ccc2F)N2C1=NCC2c1cc(F)c(F)c(F)c1` (stereo not drawn) [Compound I-0210], the figure is 10 to 100 nM; as for `COc1ccc(Nc2nc(=O)cc3n2C(c2ccc(F)c(Cl)c2)CC3)c(C)c1` (stereo not drawn) [Compound I-0037], under 10 nM; as for `COc1ccc(C)c(NC2=NC(=O)N(C)C3=NCC(c4ccc(F)c(F)c4)N23)c1` (stereo not drawn) [Compound I-0124], 10 to 100 nM.

`Cc1nc2cc(C)c(Nc3nc(=O)cc4n3C(c3ccc(F)cc3)CC4)cc2s1` (stereo not drawn) [Compound I-0026]: the IC50 is under 10 nM. On the same count and under the same terms, as for `COc1cc(C)c(Nc2nc(=O)c(OC)c3n2C(c2ccccc2)CC3)cc1C` (stereo not drawn) [Compound I-0031], the figure is 10 to 100 nM. `CN1C(=O)N=C(NCc2ccc(F)cc2)N2C1=NCC2c1cc(F)c(F)c(F)c1` (stereo not drawn) [Compound I-0198] had an IC50 of 10 to 100 nM. Still for that read-out and setting: as for `CCc1nc(OC)ccc1NC1=NC(=O)N(C)C2=NCC(c3cc(F)cc(F)c3)N12` (stereo not drawn) [Compound I-0155], the figure is 10 to 100 nM. The same measure, in the same setting: as for `Cc1ccc(NC2=NC(=O)N(C)C3=NCC(c4ccc(F)c(F)c4)N23)c(C)n1` (stereo not drawn) [Compound I-0115], the figure is 100 to 500 nM. Still for that read-out and setting: in the case of `COc1cc(Nc2nc(=O)cc3n2C(c2ccc(F)cc2)CC3)c(C)cc1Cl` (stereo not drawn) [Compound I-0033] it was 10 to 100 nM; in that of `Cc1ccc(C)c(NC2=NC(=O)N(C)C3=NCC(Cc4ccccc4)N23)c1` (stereo not drawn) [Compound I-0177], 100 to 500 nM. In turn, `Cc1c(Cl)cccc1Nc1nc(=O)cc2n1C(c1ccccc1)CC2` (stereo not drawn) [Compound I-0007] came in with an IC50 of under 10 nM. Regarding `Cc1ccc(C(F)(F)CO)cc1NC1=NC(=O)N(C)C2=NCC(c3cc(F)c(F)c(F)c3)N12` (stereo not drawn) [Compound I-0206], the IC50 fell in the range of 10 to 100 nM. On the same count and under the same terms, in the case of `COc1cnc(C)c(/N=c2\[nH]c(=O)cc3n2C(c2ccc(F)cc2)CC3)c1` (stereo not drawn) [Compound I-0079] it was 10 to 100 nM.

Compound `CCN1C(=O)N=C(Nc2ccc(OC)nc2C)N2C1=NCC2c1ccc(F)cc1` (stereo not drawn) [Compound I-0117] had a half-inhibitory concentration (IC50) of 100 to 500 nM. Still for that read-out and setting: as for `COc1cc(C)c(Nc2nc(=O)cc3n2C(c2cccc(F)c2)CC3)cc1OC` (stereo not drawn) [Compound I-0018], the figure is 10 to 100 nM; as for `COc1cnc(C)c(Nc2nc(=O)c(F)c3n2C(c2cc(F)cc(F)c2)CC3)c1` (stereo not drawn) [Compound I-0123], 10 to 100 nM. Compound `Cc1ccc(OC[C@H]2C[C@H](O)C2)cc1NC1=NC(=O)N(C)C2=NCC(c3cc(F)c(F)c(F)c3)N12` (stereo partly drawn) [Compound I-0190] displayed an IC50 of 10 to 100 nM. The same measure, in the same setting: as for `COc1cc(/N=c2\[nH]c(=O)cc3n2C(c2cc(F)cc(F)c2)CC3)c(C)cc1F` (stereo not drawn) [Compound I-0063], the figure is 10 to 100 nM; as for `CCOc1ccc(NC2=NC(=O)N(C)C3=NCC(c4cc(F)c(F)c(F)c4)N23)c(CC)n1` (stereo not drawn) [Compound I-0165], 10 to 100 nM; as for `Cc1ccc(CO)cc1NC1=NC(=O)N(C)C2=NCC(Cc3ccccc3)N12` (stereo not drawn) [Compound I-0179], 100 to 500 nM. Same read-out and setting: as for `Cc1ncc(CO)cc1NC1=NC(=O)N(C)C2=NCC(c3cc(F)c(F)c(F)c3)N12` (stereo not drawn) [Compound I-0175], the figure is 10 to 100 nM.

Compound `COc1ccc(Nc2nc(=O)c(F)c3n2C(c2ccc(F)cc2F)CC3)c(C)c1` (stereo not drawn) [Compound I-0064] showed an IC50 of 10 to 100 nM. Same read-out and setting: as for `Cc1nc2cc(C)c(Nc3nc(=O)cc4n3[C@H](c3ccccc3)CC4)cc2s1` [Compound I-0029], the figure is under 10 nM; as for `COc1ccc(C)c(Nc2nc(=O)c(F)c3n2C(c2cc(F)c(F)c(F)c2)CN3)c1` (stereo not drawn) [Compound I-0166], 10 to 100 nM. Still for that read-out and setting: as for `COc1cc(Nc2nc(=O)cc3n2C(c2cc(F)cc(F)c2)CN3)c(C)cc1F` (stereo not drawn) [Compound I-0128], the figure is 10 to 100 nM; as for `CCN1C(=O)N=C(Nc2ccc(C)nc2C)N2C1=NCC2c1ccc(F)cc1` (stereo not drawn) [Compound I-0112], 500 to 1000 nM; as for `CCOc1ccc(Nc2nc(=O)cc3n2C(c2cc(F)cc(F)c2)CC3)c(C)n1` (stereo not drawn) [Compound I-0055], 10 to 100 nM. Still for that read-out and setting: in the case of `Cc1cc(F)c(OCCO)cc1NC1=NC(=O)N(C)C2=NCC(c3cc(F)c(F)c(F)c3)N12` (stereo not drawn) [Compound I-0172] it was 10 to 100 nM; in that of `COc1nc(C)c(Nc2nc(=O)cc3n2C(c2ccc(F)cc2F)CC3)cc1F` (stereo not drawn) [Compound I-0084], 10 to 100 nM; in that of `CCN1C(=O)N=C(Nc2cc(C)c(C)cc2C)N2C1=NCC2c1ccccc1` (stereo not drawn) [Compound I-0111], under 10 nM. As to `COc1cc(C)c(Nc2nc(=O)cc3n2C(c2ccc(F)c(F)c2)CC3)cc1OC` (stereo not drawn) [Compound I-0025], the half-maximal inhibitory concentration (IC50) is 10 to 100 nM. On the same count and under the same terms, as for `COc1ccc(Nc2nc(=O)c(F)c3n2C(c2cc(F)cc(F)c2)CC3)c(C)c1` (stereo not drawn) [Compound I-0097], the figure is under 10 nM; as for `CCOc1ccc(/N=c2\[nH]c(=O)cc3n2C(c2ccc(F)cc2F)CC3)c(CC)n1` (stereo not drawn) [Compound I-0075], 10 to 100 nM.

In turn, `COCCOc1ccc(C)c(NC2=NC(=O)N(C)C3=NCC(Cc4ccccc4)N23)c1` (stereo not drawn) [Compound I-0169] gave an IC50 of 10 to 100 nM. Still for that read-out and setting: as for `COc1ccc(Nc2nc(=O)cc3n2C(c2ccccc2)CC3)c(C)n1` (stereo not drawn) [Compound I-0034], the figure is 10 to 100 nM. The same measure, in the same setting: as for `Cc1cc2cnn(CCO)c2cc1NC1=NC(=O)N(C)C2=NCC(c3cc(F)c(F)c(F)c3)N12` (stereo not drawn) [Compound I-0187], the figure is 10 to 100 nM; as for `COc1ccc(NC2=NC(=O)N(C)C3=NCC(c4cc(F)cc(F)c4)N23)c(C)c1` (stereo not drawn) [Compound I-0122], 10 to 100 nM.

As to `Cc1nc2cc(C)c(NC3=NC(=O)N(C)C4=NCC(c5cc(F)c(F)c(F)c5)N34)cc2s1` (stereo not drawn) [Compound I-0156], the IC50 fell in the range of 10 to 100 nM. Take `COc1ccc(C)c(Nc2nc(=O)cc3n2C(c2ccccc2)CC3)c1` (stereo not drawn) [Compound I-0016]: the IC50 fell in the range of 10 to 100 nM. With `COc1cc(C)c(Nc2nc(=O)cc3n2C(c2cc(F)c(F)c(F)c2)CC3)cc1OC` (stereo not drawn) [Compound I-0021], the IC50 was in the range of 10 to 100 nM.
